Experimental data from ChEMBL document CHEMBL3992523, “Potent Inhibition of Nitric Oxide-Releasing Bifendate Derivatives against Drug-Resistant K562/A02 Cells in Vitro and in Vivo” (J Med Chem, 2017).
The source made the active and inactive calls.

Tests used:
K562 [1] = test: Anti-proliferative activity against human K562 cells measured after 72 hrs by MTS assay; type: functional, cell-based; details: K562, 72 h
K562/A02 [2] = test: Antitumor activity against P-gp overexpressing/drug resistant human K562/A02 cells xenografted in BALB/c nude mouse assessed as reduction in tumor volume at 120 mg/kg, iv administered every other day for 21 days measured every other day during dosing; type: functional, organism-based
K562/A02 [3] = test: Anti-proliferative activity against P-gp overexpressing/drug resistant human K562/A02 cells measured after 72 hrs by MTS assay; type: functional, cell-based; details: K562/A02, 72 h
Homo sapiens [4] = species: Homo sapiens; test: Inhibition of ERK phosphorylation in human K562/A02 cells at 1 uM measured after 48 hrs by Western blot analysis; type: cell-based
Homo sapiens [5] = species: Homo sapiens; test: Inhibition of P-gp in human K562/A02 cells assessed as increase in intracellular rhodamine123 accumulation at 0.33 to 10 uM measured after 1 hr by flow cytometry; type: cell-based
K562/A02 [6] = test: Down regulation of HIF-alpha expression in P-gp overexpressing/drug resistant human K562/A02 cells at 8 uM after 24 hrs by Western blot analysis; type: functional, cell-based
[7] = Drug metabolism in P-gp overexpressing/drug resistant human K562/A02 cells assessed as nitric oxide production at 20 uM up to 6 hrs by Griess assay; type: ADME, cell-based; details: k562/a02, 6 h
[8] = biological target: RAC-alpha serine/threonine-protein kinase (Homo sapiens) (UniProt P31749); test: Inhibition of AKT phosphorylation in P-gp overexpressing/drug resistant human K562/A02 cells at 8 uM after 24 hrs by Western blot analysis
K562/A02 [9] = test: Induction of nitration of mitochondrial cytochrome c in P-gp overexpressing/drug resistant human K562/A02 cells at 10 uM in presence of hemoglobin measured after 24 hrs by Western blot analysis; type: functional, cell-based
Homo sapiens [10] = species: Homo sapiens; test: Inhibition of ERK phosphorylation in human K562/A02 cells at 2 uM in presence of hemoglobin measured after 24 hrs by Western blot analysis; type: cell-based
Homo sapiens [11] = species: Homo sapiens; test: Inhibition of ERK phosphorylation in P-gp overexpressing/drug resistant human K562/A02 cells at 8 uM after 24 hrs by Western blot analysis
[12] = Drug metabolism in P-gp overexpressing/drug resistant human K562/A02 cells assessed as nitric oxide production at 20 uM by DAF-FMDA staining based fluorescent microscopic analysis; type: ADME, cell-based; details: k562/a02, 20 µM, TDE = time-dependent effect
Mus musculus [13] = test: Toxicity in P-gp overexpressing/drug resistant human K562/A02 cells xenografted BALB/c nude mouse assessed as change in body weight at 120 mg/kg, iv administered every other day for 21 days measured on day 2,4,6,8,10,12,14,16,18,20,22 of dosing; type: organism-based; details: in vivo, 504 h
K562/A02 [14] = test: Effect on P-gp expression in P-gp overexpressing/drug resistant human K562/A02 cells up to 8 uM by Western blot analysis; type: functional, cell-based
K562/A02 [15] = test: Down regulation of HIF-alpha expression in human K562/A02 cells at 2 uM in presence of hemoglobin measured after 24 hrs by Western blot analysis; type: functional, cell-based
[16] = Resistant factor, ratio of IC50 for P-gp overexpressing/drug resistant human K562/A02 cells to IC50 for human K562 cells; type: functional
Mus musculus [17] = test: Toxicity in BALB/c nude mouse assessed as abnormality in eating at 1000 mg/kg, iv measured up to 14 days; type: organism-based; details: in vivo, 336 h
[18] = Permeability in human Caco2 cells assessed as concentration ratio of basolateral to apical side at 100 uM measured at 10 mins post dose by HPLC analysis; type: ADME, cell-based; details: caco-2, 10 min
K562/A02 [19] = test: Induction of nitration of mitochondrial cytochrome c in P-gp overexpressing/drug resistant human K562/A02 cells at 10 uM measured after 24 hrs by Western blot analysis; type: functional, cell-based
Mus musculus [20] = test: Toxicity in BALB/c nude mouse assessed as effect on survival at 1000 mg/kg, iv measured up to 14 days; type: organism-based; details: in vivo, 336 h
Mus musculus [21] = test: Toxicity in BALB/c nude mouse assessed as change in body weight at 1000 mg/kg, iv measured up to 14 days; type: organism-based; details: in vivo, 336 h
K562/A02 [22] = test: Down regulation of HIF-alpha expression in P-gp overexpressing/drug resistant human K562/A02 cells at 1 uM measured after 48 hrs by Western blot analysis; type: functional, cell-based
Homo sapiens [23] = species: Homo sapiens; test: Inhibition of NF-kappaB phosphorylation in P-gp overexpressing/drug resistant human K562/A02 cells at 8 uM after 24 hrs by Western blot analysis
K562/A02 [24] = test: Anti-proliferative activity against P-gp overexpressing/drug resistant human K562/A02 cells assessed as decrease in cell survival at 1 uM in presence of hemoglobin measured after 24 hrs by MTS assay; type: functional, cell-based
Homo sapiens [25] = species: Homo sapiens; test: Induction of nitration of P-gp in P-gp overexpressing/drug resistant human K562/A02 cells at 10 uM measured after 24 hrs by Western blot analysis
Mus musculus [26] = test: Induction of nitration of mitochondrial cytochrome c in tumor of iv dosed BALB/c nude mouse xenografted with P-gp overexpressing/drug resistant human K562/A02 cells administered every other day for 21 days by Western blot analysis; type: functional, organism-based
Homo sapiens [27] = species: Homo sapiens; test: Effect on P-gp ATPase activity in human K562/A02 cell membranes assessed as remaining ATP level by measuring relative light units at 40 uM in presence of MgATP measured after 40 mins by luminescence based P-gp-Glo assay (reference value: 216508 +/- 7426 RLU)
[28] = Drug metabolism in P-gp overexpressing/drug resistant human K562/A02 cells assessed as nitric oxide production at 100 uM measured at 240 mins by Griess assay; type: ADME, cell-based; details: k562/a02, 4 h
Homo sapiens [29] = species: Homo sapiens; test: Inhibition of NF-kappaB phosphorylation in human K562/A02 cells at 2 uM in presence of hemoglobin measured after 24 hrs by Western blot analysis; type: cell-based
[30] = Drug metabolism in P-gp overexpressing/drug resistant human K562/A02 cells assessed as nitric oxide production at 100 uM in presence of hemoglobin measured over 30 to 300 mins by Griess assay; type: ADME, cell-based; details: k562/a02, 100 µM
[31] = biological target: RAC-alpha serine/threonine-protein kinase (Homo sapiens) (UniProt P31749); test: Inhibition of AKT phosphorylation in human K562/A02 cells at 2 uM in presence of hemoglobin measured after 24 hrs by Western blot analysis; type: cell-based
[32] = Permeability in human Caco2 cells assessed as concentration ratio of basolateral to apical side at 100 uM measured at 5 mins post dose by HPLC analysis; type: ADME, cell-based; details: caco-2, 5 min
Homo sapiens [33] = species: Homo sapiens; test: Inhibition of NF-kappaB phosphorylation in human K562/A02 cells at 1 uM measured after 48 hrs by Western blot analysis; type: cell-based
Mus musculus [34] = test: Toxicity in BALB/c nude mouse assessed as abnormality in drinking at 1000 mg/kg, iv measured up to 14 days; type: organism-based; details: in vivo, 336 h
Homo sapiens [35] = species: Homo sapiens; test: Induction of nitration of P-gp in P-gp overexpressing/drug resistant human K562/A02 cells at 10 uM in presence of hemoglobin measured after 24 hrs by Western blot analysis
K562 [36] = test: Effect on rhodamine123 accumulation in human K562 cells at 0.33 to 10 uM measured after 1 hr by flow cytometry; type: functional, cell-based
[37] = biological target: RAC-alpha serine/threonine-protein kinase (Homo sapiens) (UniProt P31749); test: Inhibition of AKT phosphorylation in human K562/A02 cells at 1 uM measured after 48 hrs by Western blot analysis; type: cell-based
K562/A02 [38] = test: Antitumor activity against P-gp overexpressing/drug resistant human K562/A02 cells xenografted in BALB/c nude mouse assessed as reduction in tumor weight at 120 mg/kg, iv administered every other day for 21 days measured post last dose; type: functional, organism-based
K562/A02 [39] = test: Effect on P-gp expression in P-gp overexpressing/drug resistant human K562/A02 cells up to 8 uM by RT-PCR method; type: functional, cell-based
K562/A02 [40] = test: Antitumor activity against P-gp overexpressing/drug resistant human K562/A02 cells xenografted in BALB/c nude mouse assessed as tumor growth inhibition at 120 mg/kg, iv administered every other day for 21 days measured post last dose relative to control; type: functional; details: 504 h, read-out: TGI

Chain of RAC-alpha serine/threonine-protein kinase (Homo sapiens) (P31749 whole entry): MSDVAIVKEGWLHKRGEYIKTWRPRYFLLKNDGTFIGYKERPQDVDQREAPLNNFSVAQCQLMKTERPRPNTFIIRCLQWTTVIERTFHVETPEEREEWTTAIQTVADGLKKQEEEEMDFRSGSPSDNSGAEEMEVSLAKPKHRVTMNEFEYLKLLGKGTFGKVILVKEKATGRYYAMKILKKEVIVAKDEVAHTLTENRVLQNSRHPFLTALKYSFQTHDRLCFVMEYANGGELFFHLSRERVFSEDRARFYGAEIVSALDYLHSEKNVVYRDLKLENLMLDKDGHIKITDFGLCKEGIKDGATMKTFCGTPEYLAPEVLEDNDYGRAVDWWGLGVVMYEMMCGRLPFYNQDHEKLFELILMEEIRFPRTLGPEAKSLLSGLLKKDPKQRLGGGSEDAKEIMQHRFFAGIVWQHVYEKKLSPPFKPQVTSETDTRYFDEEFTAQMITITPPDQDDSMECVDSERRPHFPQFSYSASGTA

COC(=O)c1cc(OC)c2c(c1-c1c(C(=O)OC3CCN(CC(=O)OCCCCOc4no[n+]([O-])c4S(=O)(=O)c4ccccc4)CC3)cc(OC)c3c1OCO3)OCO2
550 nM: IC50 (K562/A02 [3])
0.14: Ratio [32]
active: Activity (K562/A02 [2]) | inhibition (Homo sapiens [4]) | inhibition (Homo sapiens [5]) | Activity (K562/A02 [6]) | inhibition [8] | inhibition (Homo sapiens [11]) | Activity (K562/A02 [19]) | Activity (K562/A02 [22]) | inhibition (Homo sapiens [23]) | Activity (Homo sapiens [25]) | Activity (Mus musculus [26]) Dose-dependent effect | inhibition (Homo sapiens [33]) | inhibition [37] | Activity (K562/A02 [38])
Non-Toxic: Activity (Mus musculus [13]) | Activity (Mus musculus [17]) | Activity (Mus musculus [20]) | Activity (Mus musculus [21]) | Activity (Mus musculus [34])
51.4%: inhibition in vivo at 120 mg/kg (K562/A02 [40])
Metabolite_Notdetected: Drug metabolism [30]
690 nM: IC50 (K562 [1])
Metabolite_Detected: Drug metabolism [7] | Drug metabolism [28]
0.53: Ratio [18]
241000 RLU: Activity (Homo sapiens [27])
Tde: Drug metabolism [12]
inactive: Activity (K562/A02 [9]) | inhibition (Homo sapiens [10]) | Activity (K562/A02 [14]) | Activity (K562/A02 [15]) | Activity (K562/A02 [24]) | inhibition (Homo sapiens [29]) | inhibition [31] | Activity (Homo sapiens [35]) | Activity (K562 [36]) | Activity (K562/A02 [39])
0.8: Ratio IC50 [16]
